Values of other authors, collected in paper PMC3819144 (Biochemical pharmacology, 2013).

Key:
CXCR7 [1] = conditions: requires relatively high concentrations
CXCR7 [2] = tested on: CXCR7

For `c1cc(CN2CCCNCCNCCCNCC2)ccc1CN1CCCNCCNCCCNCC1` [AMD3100], the “effect on binding of CXCL12 to CXCR7” value (CXCR7 [1]) is given as “enhance binding of CXCL12 to CXCR7” and the “CXCR7 signaling through β-arrestin 2 / recruitment of β-arrestin 2” value (CXCR7 [2]) is given as “modestly activate CXCR7 signaling through β-arrestin 2”.
